Test results as given in patent US4122202A, “Amino-3H-isobenzofuranones N-substitutes and their therapeutic application” (Societe Cortial, priority 1975, dated 1978).
Like-named read-outs stand apart in the source and are kept apart here.

Tests used:
[1] = system: mice; experiment: Oral toxicity in mice (LDO, LD50); assay type: in vivo; settings: gummy julep (No. 1 and 13 in Tween), 2 weeks observation
Experimental: (§1) This toxicity is estimated by the calculation of the lethal dose of 50 (LD 50) which determines the fatal dose of the substance for 50% of the animals tested. This determination was effected in accordance with a modification of the method by Litchfield and Wilcoxon (J. Pharmacol. Exp. Therap. 1949, 96, 99-113).
(§2) Swiss mice without specific pathogenic organisms were kept in air conditioned rooms 24 to 48 hours before the start of the tests. They were divided into batches of 5.male. and 5.female.. With the animals unfed for 24 hours, the substances were intragastically administered in suspension in 2% Tween 80 or in 6% gummy julep in a volume equivalent to 0.1 ml per 10 g of the weight of the animal.
(§3) They remained under observation for two weeks before being killed and subjected to an autopsy.
(§4) All products were administered in gummy julep except No. 1 and No. 13 which were administered in Tween. The analgesic activity were determined in mice by utilizing as a nociceptive agent, phenylbenzoquinone (PBQ) (modification of the method by Siegmund and co-workers Proc. Soc. Exp. Biol. Med. 1957, 95, 729-31). The process consists of seeking a possible protection for the mouse vis-a-vis abdominal twisting and stretching of the hind legs induced by the parental injection of PBQ. 25 minutes after having orally administered the products to be tested in suspension in 2% Tween 80 or in 6% gummy julep, the PBQ solution was injected and the mice were observed after 5 minutes during the following 5 minutes. For certain products, AD 50 is presented as a measure of activity.

[2] = system: mice; experiment: Analgesic activity: protection against abdominal twisting induced by phenylbenzoquinone (PBQ); assay type: in vivo; settings: for ED50: Mus musculus, oral, read-out: AD 50 (the source's name)
Experimental: as §4, with “activity. […]” for “activity.”

[3] = system: rats; experiment: Anti-inflammatory activity: carragenic test (carragenine-induced edema of the hind leg); assay type: in vivo, male rats; settings: for ED50: oral
Experimental: All products were administered in gummy julep except No. 1 and No. 13 which were administered in suspension in Tween. The anti-inflammatory activity was determined by the carragenic test with male rats. Inflammation was induced by the injection of 0.1 ml of a 0.5% suspension of carragenine in a physiological serum into the muscular fasciculus of the metatarsal region of the hind leg of the animal. The substance to be tested was orally administered simultaneously with the carragenine. The edema was measured by phethysmography 1, 2, 3, 4, 5 and 6 hours after the administration of the carragenine.
**50 mg/kg No. 13 which were administered in suspension in Tween.

[4] = Oral toxicity in mice (LDO, LD50); assay type: in vivo; settings: mouse, in vivo; for LD50 at 336 h: gummy julep (No. 1 and 13 in Tween), 2 weeks observation
Experimental: as §1, §2, §3, §4

[5] = system: rats; experiment: Ulcerous activity (modified method of Colot); assay type: in vivo, female EOPS rats; settings: 250 mg/kg oral daily
Experimental: Ulcerous activity was determined according to a modification of the method by Colot (Technical notions of general pharmacology, 1972) in the case of femal EOPS rats of approximately 150 g. The animals were left without absolutely any food, while the test products were orally administered on a daily basis in suspension in 2% Tween at a volume of 0.5 ml/100 g. The animals were killed under chloroform and the stomachs were removed. Ulcerous activity was established by means of an index taking into account the degree of ulceration and the percentage of animals effected.
In the table given below, a comparison is shown between the results obtained with niflumic acid and product No. 1.

[6] = Rattus norvegicus, 2H, read-out: ED 50
[7] = Rattus norvegicus, 4H, read-out: ED 50

Row | Compound | LDO (maximum dose which did not lead to any mortality) [1] | % activity ([2]; 200 mg/kg oral) [%] | ED50 [2] [mg/kg] | % activity (inhibition of edema) ([3]; 200 mg/kg oral, 4H) [%] | % activity (inhibition of edema) ([3]; 400 mg/kg oral, 4H) [%] | LD50 at 336 h [4] [mg/kg] | % activity (inhibition of edema) ([3]; 300 mg/kg oral, 2H) [%] | % activity (inhibition of edema) ([3]; 300 mg/kg oral, 4H) [%] | % activity (inhibition of edema) ([3]; 150 mg/kg oral, 2H) [%] | % activity (inhibition of edema) ([3]; 150 mg/kg oral, 4H) [%] | further results
1 | COc1ccc2c(c1OC)C(=O)OC2Nc1ccc2c(c1)OCCO2 (stereo not drawn) [Product 14] | > 2000 mg/kg | 73 | 150 | 33 | 63 | – | – | – | – | – | % activity (inhibition of edema) ([3]; 200 mg/kg oral, 2H): 63%; % activity (inhibition of edema) ([3]; 400 mg/kg oral, 2H): 79%; ED50 [3, 6]: 175 mg/kg; ED50 [3, 7]: 260 mg/kg
2 | CCCCC1(C)Oc2ccc(NC3OC(=O)c4ccccc43)cc2O1 (stereo not drawn) [Product 5] | > 2000 mg/kg | 42 | 270 | 28 | 17 | > 2000 | – | – | – | – | –
3 | O=C1OC(Nc2ccc3c(c2)COCO3)c2ccccc21 (stereo not drawn) [Product 21] | > 2000 mg/kg | 61 | 275 | – | – | – | 44 | 43 | – | – | ED50 [3, 6]: 400 mg/kg; ED50 [3, 7]: 500 mg/kg
4 | Cc1cc2c(cc1NC1OC(=O)c3ccccc31)OCO2 (stereo not drawn) [Product 9] | 1000 to 2000 mg/kg | – | 70 | 39 | 60 | > 2000 | – | – | – | – | % activity ([2]; 100 mg/kg oral): 83%; % activity (inhibition of edema) ([3]; 200 mg/kg oral, 2H): 29%; % activity (inhibition of edema) ([3]; 400 mg/kg oral, 2H): 71%; ED50 [3, 6]: 220 mg/kg; ED50 [3, 7]: 240 mg/kg
5 | O=C(O)c1cc2c(cc1NC1OC(=O)c3ccccc31)OCO2 (stereo not drawn) [Product 15] | > 2000 mg/kg | 26 | – | – | – | – | 15 | 4 | 15 | 21 | –
6 | CC1(C)Oc2ccc(NC3OC(=O)c4ccccc43)cc2O1 (stereo not drawn) [Product 7] | ~ 1000 mg/kg | 81 | 80 | 20 | 25 | – | – | – | – | – | mortality at 336 h ([4]; at 2000 mg/kg, read-out: deaths (LD50 column)): 70%; % activity (inhibition of edema) ([3]; 200 mg/kg oral, 2H): 19%; % activity (inhibition of edema) ([3]; 400 mg/kg oral, 2H): 23%
7 | O=C1OC(Nc2ccc3c(c2)OC(CO)CO3)c2ccccc21 (stereo not drawn) [Product 18] | > 2000 mg/kg | 44 | 260 | – | – | – | 22 | 0 | 16 | 6 | –
8 | O=C1OC(Nc2ccc3c(c2)OCO3)c2ccccc21 (stereo not drawn) [Product 1] | – | – | – | – | – | ~2600 | – | – | – | – | IA: Acute ulceration index ([5]; 1 day): 0; IC: Ulceration index on the way of cicatrization ([5]; 1 day): 1.5; IA: Acute ulceration index ([5]; 3 days): 5; IC: Ulceration index on the way of cicatrization ([5]; 3 days): 22
9 | N(2,2-dimethyl benzodioxol-1,3 yl-5) 3-amino 3H-isobenzofuranone-1 [Product 7] | – | 86 | – | – | 68 | – | – | – | 68 | 43 | % activity (inhibition of edema) ([3]; 400 mg/kg oral, 2H): 72%; ED50 ([3]; 2H): 75 mg/kg; ED50 ([3]; 4H): 220 mg/kg
10 | CCCC1(CC)Oc2ccc(NC3OC(=O)c4ccccc43)cc2O1 (stereo not drawn) [Product 6] | 1000 to 2000 mg/kg | 25 | 420 | 22 | 3 | ≥ 2000 | – | – | – | – | –
11 | CCCC1(CCC)Oc2ccc(NC3OC(=O)c4ccccc43)cc2O1 (stereo not drawn) [Product 4] | – | 20 | – | 23 | 13 | ~2000 | – | – | – | – | –
12 | COc1ccc2c(c1OC)C(=O)OC2Nc1ccc2c(c1)OCO2 (stereo not drawn) [Product 8] | 750 to 1000 mg/kg | 54 | 180 | 66 | 48 | ~1000 | – | – | – | – | % activity (inhibition of edema) ([3]; 200 mg/kg oral, 2H): 68%; % activity (inhibition of edema) ([3]; 400 mg/kg oral, 2H): 74%; ED50 [3, 6]: 180 mg/kg; ED50 [3, 7]: 230 mg/kg
13 | CC(=O)OCC1COc2cc(NC3OC(=O)c4ccccc43)ccc2O1 (stereo not drawn) [Product 20] | > 2000 mg/kg | 13 | 550 | – | – | – | 10 | 13 | 16 | 3 | –
14 | O=C1OC(Nc2ccc3c(c2)OCCO3)c2ccccc21 (stereo not drawn) [Product 13] | ≥ 1000 mg/kg | – | 100 | – | – | ≥ 3000 | 76 | 55 | 77 | 50 | % activity ([2]; 150 mg/kg oral): 73%; ED50 [3, 6]: 230 mg/kg; ED50 [3, 7]: 210 mg/kg
15 | Cc1cc(NC2OC(=O)c3ccccc32)c(C)c2c1OCOC2 (stereo not drawn) [Product 22] | > 2000 mg/kg | 38 | 260 | – | – | – | – | – | 35 | 31 | –
16 | CCN(c1ccc2c(c1)OCO2)C1OC(=O)c2ccccc21 (stereo not drawn) [Product 12] | – | – | 45 | – | – | ~590 | – | – | – | – | % activity ([2]; 50 mg/kg oral): 61%; % activity (inhibition of edema) ([3]; 25 mg/kg (footnote *) oral, 2H): 33%; % activity (inhibition of edema) ([3]; 25 mg/kg (footnote *) oral, 4H): 17%; % activity (inhibition of edema) ([3]; 50 mg/kg oral, 2H): 43%; % activity (inhibition of edema) ([3]; 50 mg/kg oral, 4H): 28%
17 | CC(=O)OCC1COc2ccc(NC3OC(=O)c4ccccc43)cc2O1 (stereo not drawn) [Product 19] | > 2000 mg/kg | – | 500 | – | – | – | 26 | 27 | 21 | 23 | % activity ([2]; 300 mg/kg oral): 21%
18 | CCC1(CC)Oc2ccc(NC3OC(=O)c4ccccc43)cc2O1 (stereo not drawn) [Product 2] | ~ 1500 mg/kg | 29 | – | – | 20 | ~2000 | – | – | – | – | –
19 | O=C1OC(Nc2ccc3c(c2)OCC(CO)O3)c2ccccc21 (stereo not drawn) [Product 17] | > 2000 mg/kg | 28 | 420 | – | – | – | 29 | 8 | 27 | 17 | –
20 | O=C1OC(Nc2ccc3c(c2)OC2(CCCCC2)O3)c2ccccc21 (stereo not drawn) [Product 3] | 1000 to 2000 mg/kg | 29 | – | 20 | 21 | ≥ 2000 | – | – | – | – | –
21 | COC(=O)c1cc2c(cc1NC1OC(=O)c3ccccc31)OCO2 (stereo not drawn) [Product 16] | > 2000 mg/kg | – | – | – | – | – | – | – | 12 | 10 | % activity ([2]; 100 mg/kg oral): 33%
